Laboratory results reported in patent US11591658B2, “Methods for sub-typing and treating cancer” (HI-STEM gGmbH, priority 2017, dated 2023).

Assays:
EGLN1 = molecular target: T1, EGLN1 (Homo sapiens, UniProt Q9GZT9); assay: HIF1 protein levels in BCAT1 knockdown cells treated with cobalt chloride; format: cell-based; settings: BCAT1 knockdown cells (HL-60), cobalt chloride given to inhibit EGLN1 activity, FIG. 4g
T1 construct: endogenous in cells; host or cells: HL-60 AML cells transduced with shBCAT1 (BCAT1 knockdown)
T1 sequence (Q9GZT9 whole entry): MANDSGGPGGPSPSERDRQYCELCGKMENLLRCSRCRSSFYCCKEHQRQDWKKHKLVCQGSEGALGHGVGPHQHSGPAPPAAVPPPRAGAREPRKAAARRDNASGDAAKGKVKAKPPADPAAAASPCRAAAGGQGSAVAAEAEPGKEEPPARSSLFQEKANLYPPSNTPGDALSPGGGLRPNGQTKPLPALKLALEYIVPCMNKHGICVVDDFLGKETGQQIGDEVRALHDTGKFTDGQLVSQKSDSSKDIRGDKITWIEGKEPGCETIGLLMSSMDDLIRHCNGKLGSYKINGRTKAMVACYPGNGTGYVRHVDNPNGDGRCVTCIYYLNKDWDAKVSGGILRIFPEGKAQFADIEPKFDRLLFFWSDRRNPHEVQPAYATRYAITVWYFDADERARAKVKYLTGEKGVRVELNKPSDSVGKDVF
Text: To gain additional mechanistic insight into cellular pathways affected by BCAT1, we utilized the HL-60 AML cell line. […] Western blot analysis confirmed HIF1 as downstream target of BCAT1 (FIG. 4e), and decreased HIF1 levels were due to enhanced protein degradation since the relative amount of hydroxylated Proline564 was increased after BCAT1 knockdown (FIG. 4f), as intracellular αKG is a co-factor of EGLN1 activity^14. […] Finally, lentiviral overexpression of HIF1 as well as shRNA-mediated knockdown of EGLN1 was sufficient to rescue the proliferation and survival defect after BCAT1-KD (FIG. 4h, i). Together, these analyses place BCAT1 upstream of HIF1 mediating its effect via the αKG-dependent activation of EGLN1. […] Knockdown of HIF1 is sufficient to abrogate LSC function^16.

[1] = system: AML cells with long-term BCAT1-overexpression; assay: Sensitivity of long-term BCAT1-overexpressing AML cells to daunorubicin; format: cell-based; settings: FIG. 5i
Text: AML patient survival is usually associated with sensitivity to standard chemotherapy^23,24. […] Along these lines, BCAT1 expression was consistently higher (on average 6.6-fold) in the relapse versus the paired diagnostic sample (FIG. 5j).

Q: Which HIF1 protein levels (EGLN1) does the source give for `[Cl][Co][Cl]` [cobalt chloride] here?
A: attenuated decrease of HIF1 protein levels

Q: Which resistance to daunorubicin [1] does the source give for `COc1cccc2c1C(=O)c1c(O)c3c(c(O)c1C2=O)C[C@@](O)(C(C)=O)C[C@@H]3O[C@H]1C[C@H](N)[C@H](O)[C@H](C)O1` [daunorubicin] here?
A: increased resistance
